From US20250145665A1, “MACROCYCLIC PEPTIDES USEFUL AS MODULATORS OF TNF ALPHA” (Bristol-Myers Squibb Company, priority 2023, published 2025)
Read-outs that look alike come from different tables or passages of the source. Starred links: 1 amine or outer side, 2 acyl side, 3 side chain; linkers in the order of their positions; H or OH if unused. Positions of bridges follow the written chain, without caps; N, C: chain ends. Non-standard residues stand in square brackets, D forms with d. Residues, ends and D or L forms follow the SMILES beside them. *: point of attachment. Bip(4'-NHCO-C6H4-4-CH2COOH) = N[C@@H](Cc1ccc(-c2ccc(NC(=O)c3ccc(CC(=O)O)cc3)cc2)cc1)C(=O)O; X39 = Cn1nc(C(=O)NCc2ccc(-c3ccc(C[C@H](N[*:1])C(=O)[*:2])cc3)cc2)c2ccccc21; X79 = O=C(O)C1CCCC(C(=O)Nc2ccc(-c3ccc(C[C@H](N[*:1])C(=O)[*:2])cc3)cc2)C1; X5 = Cn1nc(C(=O)Nc2ccc(-c3ccc(C[C@H](N[*:1])C(=O)[*:2])cc3)cc2)c2ccccc21; Bip(4'-NHBz) = N[C@@H](Cc1ccc(-c2ccc(NC(=O)c3ccccc3)cc2)cc1)C(=O)O; Bip(4'-NH) = O=C([C@H](Cc1ccc(-c2ccc(N[*:3])cc2)cc1)N[*:1])[*:2]; Indazole3carbonyl(1-CH2COOH) = O=C(O)Cn1nc(C(=O)*)c2ccccc21; Bip(4'-COOH) = N[C@@H](Cc1ccc(-c2ccc(C(=O)O)cc2)cc1)C(=O)O; Bip(4'-NHAc) = CC(=O)Nc1ccc(-c2ccc(C[C@H](N)C(=O)O)cc2)cc1; X29 = N=C(NCCC[C@@H](N[*:1])C(=O)[*:2])NCCc1ccc(F)c(F)c1; Ala(morpholin-4-yl) = N[C@@H](CN1CCOCC1)C(=O)O; Bip = N[C@@H](Cc1ccc(-c2ccccc2)cc1)C(=O)O; 2Pal = N[C@@H](Cc1ccccn1)C(=O)O; Cha = N[C@@H](CC1CCCCC1)C(=O)O; Chg = N[C@H](C(=O)O)C1CCCCC1; Tle = CC(C)(C)[C@H](N)C(=O)O; X50 = O=C(O)COc1ccccc1C(=O)*; Aze = O=C(O)[C@@H]1CCN1; Sar = CNCC(=O)O

Target: TNFα (Homo sapiens, UniProt P01375)
Sequence (P01375 77-233 limits assumed): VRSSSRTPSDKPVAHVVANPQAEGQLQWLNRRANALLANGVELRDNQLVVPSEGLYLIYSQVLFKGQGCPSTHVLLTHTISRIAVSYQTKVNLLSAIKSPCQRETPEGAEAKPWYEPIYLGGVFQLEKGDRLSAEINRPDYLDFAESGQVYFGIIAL
Test: TNF-Induced HEK-Blue Assay
Format: cell-based
[1] = HEK-Blue-CD40L cells, NF-kB-driven secreted alkaline phosphatase reporter, TNFα 0.5 ng/ml, 18 h, read-out: TNF induced HEK-Blue assay IC50 value

| SMILES | IC50 [1] [nM] | IC50 [nM] |
| --- | --- | --- |
| CC[C@H](C)[C@@H]1NC(=O)[C@@H](CCCNC(=N)N)NC(=O)[C@H](CC(=O)O)NC(=O)[C@H](Cc2cnc[nH]2)NC(=O)CN(C)C(=O)[C@H](Cc2ccc(-c3ccc(NC(=O)C4CCCC(C(=O)O)C4)cc3)cc2)NC(=O)[C@H](Cc2ccc(-c3ccccc3)cc2)NC(=O)[C@H](CC2CCCCC2)NC(=O)CSC[C@@H](C(=O)NCC(N)=O)NC(=O)[C@H](CC(C)C)NC(=O)[C@H](Cc2cnc[nH]2)NC(=O)[C@H](C(C)C)NC(=O)[C@@H]2CCCN2C1=O (stereo partly drawn) [Example 317] ({CH2CO}-[Cha][Bip][X79][Sar]HD[dR]IPVHLCG-NH2; thioether N-13) | 50 to 200 |  |
| CC[C@H](C)[C@@H]1NC(=O)[C@@H](CCCNC(=N)N)NC(=O)[C@H](CC(=O)O)NC(=O)[C@H](Cc2cnc[nH]2)NC(=O)CN(C)C(=O)[C@H](Cc2ccc(-c3ccc(NC(=O)c4ccccc4)cc3)cc2)NC(=O)[C@H](Cc2ccc(-c3ccccc3)cc2)NC(=O)[C@H](CC2CCCCC2)NC(=O)CSC[C@@H](C(=O)NCC(N)=O)NC(=O)[C@H](CC(C)C)NC(=O)[C@H](Cc2cnc[nH]2)NC(=O)[C@H](C(C)C)NC(=O)[C@@H]2CCCN2C1=O [Example 315] ({CH2CO}-[Cha][Bip][Bip(4'-NHBz)][Sar]HD[dR]IPVHLCG-NH2; thioether N-13) |  | < 50 |
| CC[C@H](C)[C@@H]1NC(=O)[C@@H]2CCCN2C(=O)[C@H]([C@@H](C)CC)NC(=O)[C@@H](CCCNC(=N)N)NC(=O)[C@H](CC(=O)O)NC(=O)[C@H](Cc2ccccc2)NC(=O)CN(C)C(=O)[C@H](Cc2ccc(-c3ccc(NC(=O)c4nn(CC(=O)O)c5ccccc45)cc3)cc2)NC(=O)[C@H](Cc2ccc(-c3ccc(C(=O)O)cc3)cc2)NC(=O)[C@H](C(C)(C)C)NC(=O)CSC[C@@H](C(=O)NCC(N)=O)NC(=O)[C@H](CC(C)C)NC(=O)[C@H](Cc2cnc[nH]2)NC1=O [Example 359] ({CH2CO}-[Tle][Bip(4'-COOH)][Bip(4'-NH)](Indazole3carbonyl(1-CH2COOH))[Sar]FD[dR]IPIHLCG-NH2; thioether N-13) |  | < 50 |
| CC[C@H](C)[C@@H]1NC(=O)[C@@H](CCCNC(=N)N)NC(=O)[C@H](CC(=O)O)NC(=O)[C@H](Cc2cnc[nH]2)NC(=O)CN(C)C(=O)[C@H](Cc2ccc(-c3ccc(NC(=O)c4nn(C)c5ccccc45)cc3)cc2)NC(=O)[C@H](Cc2ccc(-c3ccccc3)cc2)NC(=O)[C@H](CC2CCCCC2)NC(=O)CSC[C@@H](C(=O)NCC(N)=O)NC(=O)[C@H](CC(C)C)NC(=O)[C@H](Cc2cnc[nH]2)NC(=O)[C@H](C(C)C)NC(=O)[C@@H]2CCCN2C1=O [Example 341] ({CH2CO}-[Cha][Bip][X5][Sar]HD[dR]IPVHLCG-NH2; thioether N-13) | < 50 |  |
| CC[C@H](C)[C@@H]1NC(=O)[C@@H](CCCNC(=N)N)NC(=O)[C@H](CC(=O)O)NC(=O)[C@H](Cc2cnc[nH]2)NC(=O)CN(C)C(=O)[C@H](Cc2ccc(-c3ccc(NC(=O)c4ccc(CC(=O)O)cc4)cc3)cc2)NC(=O)[C@H](Cc2ccc(-c3ccc(C(=O)O)cc3)cc2)NC(=O)[C@H](CC2CCCCC2)NC(=O)CSC[C@@H](C(=O)NCC(N)=O)NC(=O)[C@H](CC(C)C)NC(=O)[C@H](Cc2cnc[nH]2)NC(=O)[C@H](C(C)C)NC(=O)[C@@H]2CCCN2C1=O [Example 488] ({CH2CO}-[Cha][Bip(4'-COOH)][Bip(4'-NHCO-C6H4-4-CH2COOH)][Sar]HD[dR]IPVHLCG-NH2; thioether N-13) | < 50 |  |
| CC[C@H](C)[C@@H]1NC(=O)[C@@H]2CCCN2C(=O)[C@H]([C@@H](C)CC)NC(=O)[C@@H](CCCNC(=N)N)NC(=O)[C@H](CC(=O)O)NC(=O)[C@H](Cc2ccccc2)NC(=O)CN(C)C(=O)[C@H](Cc2ccc(-c3ccc(CNC(=O)c4nn(C)c5ccccc45)cc3)cc2)NC(=O)[C@H](Cc2ccc(-c3ccccc3)cc2)NC(=O)[C@H](CC2CCCCC2)NC(=O)CSC[C@@H](C(=O)NCC(N)=O)NC(=O)[C@H](CC(C)C)NC(=O)[C@H](Cc2cnc[nH]2)NC1=O [Example 400] ({CH2CO}-[Cha][Bip][X39][Sar]FD[dR]IPIHLCG-NH2; thioether N-13) | 200 to 2000 |  |
| CC(C)C[C@@H]1NC(=O)[C@H](CCCNC(=N)N)NC(=O)[C@H](C(C)C)NC(=O)[C@@H]2CCCN2C(=O)[C@H](C(C)C)NC(=O)[C@@H](CCCNC(=N)NCCc2ccc(F)c(F)c2)NC(=O)[C@H](CC(=O)O)NC(=O)[C@@H]2CCCN2C(=O)CN(C)C(=O)[C@H](Cc2ccc(-c3ccc(NC(=O)c4nn(CC(=O)O)c5ccccc45)cc3)cc2)NC(=O)[C@H](Cc2ccc(-c3ccccc3)cc2)NC(=O)[C@H](CN2CCOCC2)NC(=O)CSC[C@@H](C(=O)NCC(N)=O)NC1=O [Example 423] ({CH2CO}-[Ala(morpholin-4-yl)][Bip][Bip(4'-NH)](Indazole3carbonyl(1-CH2COOH))[Sar]PD[X29]VPVRLCG-NH2; thioether N-13) |  | < 50 |

Now from value to compound, other results behind:

| IC50 [1] [nM] | SMILES | IC50 [nM] |
| --- | --- | --- |
| 50 to 200 | CC(C)C[C@@H]1NC(=O)[C@H](Cc2ccc(O)cc2)NC(=O)[C@H](C(C)C)NC(=O)[C@@H]2CCCN2C(=O)[C@H](C(C)C)NC(=O)[C@H](CCCNC(=N)N)NC(=O)[C@H](CC(=O)O)NC(=O)[C@@H]2CCCN2C(=O)CN(C)C(=O)[C@H](Cc2ccc(-c3ccccc3)cc2)NC(=O)[C@H](Cc2ccc(-c3ccc(C(=O)O)cc3)cc2)NC(=O)[C@H](CN2CCOCC2)NC(=O)CSC[C@@H](C(=O)NCC(N)=O)NC1=O [Example 124] ({CH2CO}-[Ala(morpholin-4-yl)][Bip(4'-COOH)][Bip][Sar]PDRVPVYLCG-NH2; thioether N-13) |  |
| < 50 | CC(=O)Nc1ccc(-c2ccc(C[C@@H]3NC(=O)[C@H](Cc4ccc(-c5ccc(C(=O)O)cc5)cc4)NC(=O)[C@H](CN4CCOCC4)NC(=O)CSC[C@@H](C(=O)NCC(N)=O)NC(=O)[C@H](CC(C)C)NC(=O)[C@H](Cc4ccc(O)cc4)NC(=O)[C@H](C(C)C)NC(=O)[C@@H]4CCN4C(=O)[C@H](C(C)C)NC(=O)[C@@H](CCCNC(=N)N)NC(=O)[C@H](CC(=O)O)NC(=O)[C@H](Cc4ccc(O)cc4)NC(=O)CN(C)C3=O)cc2)cc1 [Example 166] ({CH2CO}-[Ala(morpholin-4-yl)][Bip(4'-COOH)][Bip(4'-NHAc)][Sar]YD[dR]V[Aze]VYLCG-NH2; thioether N-13) |  |
| < 50 | CC[C@H](C)[C@@H]1NC(=O)[C@@H](CCCNC(=N)N)NC(=O)[C@H](CC(=O)O)NC(=O)[C@H](Cc2ccccc2)NC(=O)CN(C)C(=O)[C@H](Cc2ccc(-c3ccc(NC(C)=O)cc3)cc2)NC(=O)[C@H](Cc2ccc(-c3ccc(C(=O)O)cc3)cc2)NC(=O)[C@H](C(C)(C)C)NC(=O)CSC[C@@H](C(=O)NCC(N)=O)NC(=O)[C@H](CC(C)C)NC(=O)[C@H](CCCNC(=N)N)NC(=O)[C@H](C2CCCCC2)NC(=O)[C@@H]2CCCN2C1=O [Example 268] ({CH2CO}-[Tle][Bip(4'-COOH)][Bip(4'-NHAc)][Sar]FD[dR]IP[Chg]RLCG-NH2; thioether N-13) |  |
| < 50 | CC(=O)Nc1ccc(-c2ccc(C[C@@H]3NC(=O)[C@H](Cc4ccc(-c5ccccc5)cc4)NC(=O)[C@H](CN4CCOCC4)NC(=O)CSC[C@@H](C(=O)NCC(N)=O)NC(=O)[C@H](CC(C)C)NC(=O)[C@H](Cc4ccc(O)cc4)NC(=O)[C@H](C4CCCCC4)NC(=O)[C@@H]4CCCN4C(=O)[C@H](C(C)C)NC(=O)[C@H](CCCNC(=N)N)NC(=O)[C@H](CC(=O)O)NC(=O)[C@@H]4CCCN4C(=O)CN(C)C3=O)cc2)cc1 [Example 210] ({CH2CO}-[Ala(morpholin-4-yl)][Bip][Bip(4'-NHAc)][Sar]PDRVP[Chg]YLCG-NH2; thioether N-13) |  |
| 200 to 2000 | CC(C)C[C@@H]1NC(=O)[C@H](Cc2ccc(O)cc2)NC(=O)[C@H](C(C)C)NC(=O)[C@@H]2CCCN2C(=O)[C@H](C(C)C)NC(=O)[C@H](CCCNC(=N)N)NC(=O)[C@H](CC(N)=O)NC(=O)[C@@H]2CCCN2C(=O)CN(C)C(=O)[C@H](Cc2ccc(-c3ccccc3)cc2)NC(=O)[C@H](Cc2ccc(-c3ccccc3)cc2)NC(=O)[C@H](CN2CCOCC2)NC(=O)CSC[C@@H](C(=O)NCC(N)=O)NC1=O [Example 133] ({CH2CO}-[Ala(morpholin-4-yl)][Bip][Bip][Sar]PNRVPVYLCG-NH2; thioether N-13) |  |
| 50 to 200 | CC(=O)Nc1ccc(-c2ccc(C[C@@H]3NC(=O)[C@H](Cc4ccc(-c5ccccc5)cc4)NC(=O)[C@H](CN4CCOCC4)NC(=O)CSC[C@@H](C(=O)NCC(N)=O)NC(=O)[C@H](CC(C)C)NC(=O)[C@H](Cc4ccc(O)cc4)NC(=O)[C@H](C(C)C)NC(=O)[C@@H]4CCCN4C(=O)[C@H](C(C)C)NC(=O)[C@H](CCCNC(=N)N)NC(=O)[C@H](CC(=O)O)NC(=O)[C@H](Cc4ccccn4)NC(=O)CN(C)C3=O)cc2)cc1 [Example 208] ({CH2CO}-[Ala(morpholin-4-yl)][Bip][Bip(4'-NHAc)][Sar][2Pal]DRVPVYLCG-NH2; thioether N-13) |  |
| 50 to 200 | CC(=O)Nc1ccc(-c2ccc(C[C@@H]3NC(=O)[C@H](Cc4ccc(-c5ccccc5)cc4)NC(=O)[C@H](CN4CCOCC4)NC(=O)CSC[C@@H](C(=O)N[C@@H](CCCCN)C(=O)O)NC(=O)[C@H](CC(C)C)NC(=O)[C@H](Cc4ccc(O)cc4)NC(=O)[C@H](C(C)C)NC(=O)[C@@H]4CCCN4C(=O)[C@H](C(C)C)NC(=O)[C@@H](CCCNC(=N)N)NC(=O)[C@H](CC(=O)O)NC(=O)[C@H](Cc4ccccn4)NC(=O)CN(C)C3=O)cc2)cc1 [Example 179] ({CH2CO}-[Ala(morpholin-4-yl)][Bip][Bip(4'-NHAc)][Sar][2Pal]D[dR]VPVYLCK-OH; thioether N-13) |  |
| < 50 | CC[C@H](C)[C@@H]1NC(=O)[C@@H](CCCNC(=N)N)NC(=O)[C@H](CC(=O)O)NC(=O)[C@H](Cc2cnc[nH]2)NC(=O)CN(C)C(=O)[C@H](Cc2ccc(-c3ccc(NC(=O)c4ccccc4OCC(=O)O)cc3)cc2)NC(=O)[C@H](Cc2ccc(-c3ccccc3)cc2)NC(=O)[C@H](CC2CCCCC2)NC(=O)CSC[C@@H](C(=O)NCC(N)=O)NC(=O)[C@H](CC(C)C)NC(=O)[C@H](Cc2cnc[nH]2)NC(=O)[C@H](C(C)C)NC(=O)[C@@H]2CCCN2C1=O [Example 329] ({CH2CO}-[Cha][Bip][Bip(4'-NH)](X50)[Sar]HD[dR]IPVHLCG-NH2; thioether N-13) |  |
